Assay results reported in a melting point compilation (Tetko et al.; mined from patent text by program, amines drawn as free bases though some values may be those of a salt).

Row | Compound | melting point [°C]
1 | CS(=O)(=O)c1ccc(-c2cc(C(=O)CCCCCO)nn2C2CCCCC2)cc1 | 125 to 127
2 | O=C(Cc1ccc(Cl)c(Cl)c1)N(O)[C@H](CN1CCCC1)c1ccccc1 | 118 to 120
3 | COc1cn(-c2ccc(-c3cnn(C)c3)cc2F)nc(-c2ccnn2-c2ccccc2)c1=O | 195 to 197
4 | CCOC(=O)c1c(NC)n[nH]c1C | 161 to 162
5 | CCCCCC(=O)n1c(=O)n(-c2ccc(OC)cc2)c(=O)n1C(=O)CCCCC | 88 to 90
6 | O=[N+]([O-])c1cc(Cc2cc(Cl)ccc2O)c(O)c(Cc2cc(Cl)ccc2O)c1 | 220
7 | CCCCc1nnc(SCc2ccc(OC)cc2)n1Cc1ccc(O)cc1 | 130 to 131
8 | CN1CCc2nc3cc(Cl)ccc3c(NNc3ccccc3)c2C1 | 175 to 178
9 | COC(=O)C[C@H](O)C[C@@H](O)C=Cc1c(-c2ccc(F)cc2)c(-c2ccc(F)cc2)c(C(=O)OCc2ccccc2)n1C(C)C | 105 to 107
10 | COc1cc(C(C)C)c2c(c1)S(=O)(=O)N(COc1cc(-c3ccccc3)nn1C)C2=O | 126 to 128
11 | CCc1nn2c(c1Oc1cc(Cl)cc(Cl)c1)C(=O)NCC2 | 220 to 223
12 | CC(=O)N1CCN(CCn2c3ccccc3c(=NN=C3NCCS3)c3ccccc32)CC1 | 256
13 | CNC(=O)Nc1cc(CNc2ncccc2C(=O)Nc2ccc3cn(C)nc3c2)ccn1 | 205 to 207
14 | CCOC(=O)c1cn(C)c2nc3cc(Cl)c(F)cc3cc2c1=O | 360 to 362
15 | Fc1cccc(CCc2nnc(-c3ccnc4[nH]ccc34)o2)c1 | 147 to 148
16 | O=C(NC(=O)c1ccccc1Cl)Nc1cc(C(F)(F)F)c(F)cc1Br | 192
17 | CN(C(=O)CCCOc1ccc2[nH]c(=O)oc(=O)c2c1)C1CCCCC1 | 222 to 224
18 | O=c1c2cccnc2c(-c2ccccc2)cn1Cc1ccncc1 | 200
19 | CN(C)C(=O)C1CCc2c([nH]c3ccc(Cl)cc23)C1 (configuration not stated) | 176 to 177
20 | CNC(=O)[C@@H](NC(=O)Nc1n[nH]c(=S)s1)C(C)OCc1ccccc1 (some centres not stated) | 187 to 189
21 | CCOC(=O)c1ncn2c1c(=O)n(C)c1ccccc12 | 218 to 220
22 | COC(=O)c1ccc(OC)c(NC(=N)c2ccc(F)cc2F)c1 | 120
23 | CC(C)Cn1c(CCCCNC(=O)Nc2ccccc2)nc2c(N)nc3c(c21)CCCC3 | 197 to 199
24 | COC(=O)Cc1c(C)n(-c2nc3ccccc3o2)c2ccc(OC)cc12 | 125 to 126
25 | Oc1c(CC2CCCCC2)ccc2ccccc12 | 53 to 56

Row | Compound | melting point [°C]
26 | OC1(C#Cc2ccc(-c3ccc(F)cc3)cc2)CN2CCC1CC2 (configuration not stated) | 232 to 233
27 | CCCc1nn(-c2ccc(C(F)(F)F)cn2)cc1CCCOc1nn(C)cc1CCC(=O)O | 103 to 104
28 | CC(=O)NCCc1cccc2ccc(O)cc12 | 125 to 126
29 | O=S(=O)(c1ccccc1)c1ncc(Br)cn1 | 103
30 | N#Cc1nccc2cccc(-n3cccc3)c12 | 178
31 | CC(C)(C(=O)O)C(c1ccc(OCc2ccc3ccccc3n2)cc1)c1ccc(OCc2ccc3ccccc3n2)cc1 | 124 to 127
32 | CCNC(=O)NCCC1CCc2ccc(OC)cc21 (configuration not stated) | 90 to 92
33 | CCC(NC(=O)C(F)F)c1ccc(Cl)c2nc3n(c12)CCCN3c1ccc(Cl)cc1Cl (configuration not stated) | 248 to 250
34 | O=C(O)c1c(-c2ccc(Cl)c(Cl)c2)csc1N1C(=O)c2ccccc2C1=O | 198 to 199
35 | O=C(O)c1cccc(NC(=O)C(CS)Cc2ccc(F)cc2)c1 (configuration not stated) | 180 to 182
36 | Cc1cc2[nH]c(=O)c3cnc(O)cc3n2n1 | > 300
37 | Cc1cc(Nc2ccnc(Nc3ccc(S(=O)(=O)N(C)C4CCN(CCS(C)(=O)=O)CC4)cc3)n2)ccc1F | 114
38 | Cc1ccc(NC(=O)c2ccc(CN3C(=O)C4(COc5cc6c(cc54)CCO6)c4ccccc43)cc2)c(C)c1 (configuration not stated) | 249 to 251
39 | Cc1c(-c2cccnc2)n(CCCCCC(N)=O)c2ccc(Cl)cc12 | 137 to 140
40 | CCNc1c(C(=O)OCC)c(C)nc2scnc12 | 53 to 54
41 | Cc1ccc(S(=O)(=O)NC(=O)Nc2nc(-c3ccccc3)c(-c3ccc(=O)n(C(C)C)n3)s2)cc1 | 172 to 174
42 | CCOC(=O)N1CCC(Oc2ccccc2)(c2ccccc2)CC1 | 117 to 118
43 | C=C(C)C(=O)NCCCC(=O)Nc1cc(Cl)c(C)c(Cl)c1O | 119 to 121
44 | COC(=O)c1ccc2c(c1)C(=O)c1ccccc1CO2 | 128 to 129
45 | NCC1CCC(CNc2ncc3ncnc(Nc4ccc(F)c(Cl)c4)c3n2)CC1 (configuration not stated) | 155 to 160
46 | CCC(=O)c1cc(C#N)c(=O)[nH]c1CC | 243 to 245
47 | CCOC(=O)C1=C(C)NC(C(OCC)OCC)=C(C(=O)OCC)C1c1ccccc1[N+](=O)[O-] (configuration not stated) | 80 to 81.5
48 | CCCNC(=O)C(C)(C)Oc1ccc(-c2ccc(N3CCCCC3)cc2)cc1 | 132 to 134
49 | COc1ccc(C2c3c(C)c(N4CCN(c5ccc(OC)cc5)CC4)c(C)c(C)c3OC2(C)C)cc1 (configuration not stated) | 205 to 207
50 | CC1(C)OC(=O)Nc2ccc(-c3cccc(C#N)c3F)cc21 | 192 to 198

Row | Compound | melting point [°C]
51 | COC1(F)C=CC=C(c2cc(CBr)c(=O)n(Cc3ccc(F)cc3)n2)C1 (configuration not stated) | 120 to 125
52 | CCC(O)(CC)c1ccc(-c2cccc(OCc3ccc(CO)c(CO)c3)c2C)c(C)c1 | 81 to 82
53 | CC(O)c1ccc2occ(-c3nnn[nH]3)c(=O)c2c1 (configuration not stated) | 234 to 236
54 | Cc1c(CC(=O)O)c2cc(O)ccc2n1C(=O)c1ccc(F)cc1 | 180 to 182
55 | Cc1c(C(=O)c2cccc(C(F)(F)F)c2)oc2c(Br)cccc12 | 97 to 98
56 | NCCCc1ccc2c(n1)NCCC2 | 66 to 68.5
57 | COc1c(CCC(=O)O)cccc1Oc1ccccc1C | 71 to 75
58 | CC(C)n1nc(-c2c(OCC(=O)N(C)C)nc(N)nc2-c2ccccc2)ccc1=O | 133 to 136
59 | Cc1cc(C2=NOC(c3cc(Cl)cc(Cl)c3)(C(F)(F)F)O2)ccc1C(=O)O (configuration not stated) | 114 to 134
60 | COCCOc1cc(C(F)(F)F)cnc1-c1nc(C)c(-c2ccnc(Nc3ccc(N4CCOCC4)cc3)n2)s1 | 175 to 178
61 | CCCC(=O)N[C@H]1CC[C@H](CCN2CCN(c3nccc4c3CCO4)CC2)CC1 | 191
62 | CCOC(=O)c1nn(-c2ccccc2C)c(=O)c2c(N)scc12 | 209 to 210
63 | O=C(CN1CCC(Oc2ccccc2)CC1)Nc1ccc2[nH]c(=O)oc2c1 | 190 to 196
64 | [N-]=[N+]=NCC(=O)c1cn2c3c(cccc13)CCC2 | 92 to 93
65 | COC(=O)C1Cc2c(cccc2C(C)C)C(=O)CS1 (configuration not stated) | 116 to 117
66 | CC(=O)Cc1ccc2c(c1)Cc1cccnc1O2 | 124 to 125
67 | Cc1nc(-n2ccc(CCc3ccccc3)cc2=O)sc1C(=O)NCc1ccccc1 | 149 to 150
68 | CCOc1cc(C(CS(C)(=O)=O)N2Cc3cccc(NC(=O)C4CC4)c3C2=O)ccc1OC(F)F (configuration not stated) | 115 to 117
69 | Cc1noc2ccc([N+](=O)[O-])cc12 | 84.5 to 86.5
70 | CN1C(=O)C(O)(c2ccccc2)c2cccc(Cl)c21 (configuration not stated) | 125 to 127
71 | Cc1nc(C#N)ccc1O | 201 to 205
72 | O=C(Nc1ccccc1)[NH+]([O-])Cc1ccncc1 (configuration not stated) | 174
73 | Cn1cncc1C(N)(c1ccc(CN)cc1)c1ccc2c(c1)c(-c1cccc(Cl)c1)cc(=O)n2C (configuration not stated) | 150
74 | CC(=O)OCCn1c(C)c(C(=O)Nc2ccc(OCC(C)(C)C)c(C#N)c2)c2cc(F)ccc21 | 124 to 125
75 | O=S(=O)(c1ccc(C(F)(F)F)cc1)N1c2cc(F)c(F)cc2-c2[nH]ncc2[C@H]1C1CC1 | 137 to 138

Row | Compound | melting point [°C]
76 | NNC(=O)c1ncnc2[nH]ccc12 | 252 to 254
77 | COCc1ccc(CCCOc2c(C)cc(-c3noc(C(F)(F)F)n3)cc2C)cn1 | 50 to 53
78 | CSC(=S)NCc1c[nH]c2ccccc12 | 132 to 133
79 | CC(C)C(=O)c1ccc(N2CCN(C)CC2)cc1 | 74 to 76
80 | FC(F)(F)c1ccc(-c2cc(C(F)(F)F)n3ncc(-c4ccccn4)c3n2)cc1 | 202
81 | CCNC(=O)c1cc(Oc2nn(C)c(C(F)(F)F)c2Cl)ccc1[N+](=O)[O-] | 130
82 | CC(C)Oc1ccc(-n2c(CC(=O)O)c(C(=O)O)c3cc(Oc4ncccc4C(=O)O)ccc32)cc1 | 212 to 214
83 | COc1cc(NC(=O)Nc2cnc3c(C)cc(C)cc3c2-c2ccccc2Cl)cc(OC)c1OC | 204 to 206
84 | O=C(O)c1ccc(-c2nc(-c3ccccc3C(F)(F)F)co2)cc1 | 264 to 265
85 | COC(=O)C(Oc1ccc(NC(C)=O)cc1)c1ccc(Oc2ccc(Cl)cc2)cc1 (configuration not stated) | 152 to 157
86 | CNC(=O)OC(C)C(=O)Nc1ccc(C2=NNC(=O)CC2C)cc1 (configuration not stated) | 96 to 98
87 | Cc1cc(Oc2c(Cl)cc(C(F)(F)F)cc2Cl)ccc1S(=O)(=O)C(F)(F)F | 121 to 122
88 | O=C(O)COc1ccc2c(-c3ccc(Cl)cc3)noc2c1 | 207
89 | CC(C)(O)COc1ccc(/C=C/C(=O)O)c(Oc2ncc(C(F)(F)F)cc2Cl)c1 | 126 to 128
90 | CN(Cc1cc(C(F)(F)F)cc(C(F)(F)F)c1)C(=O)c1c(-c2ccc(F)cc2)c2nccnc2c(=O)n1C | 220 to 222
91 | Cc1cc(OCCCC(C)(C)C(=O)O)c(C)c(C)c1OCc1ccccc1 | 105 to 107
92 | CCOC(=O)COc1cc2c(c(Cl)c1Cl)C(=O)C(CC#C[Si](C)(C)C)(c1ccccc1)C2 (configuration not stated) | 112 to 113
93 | OCCNc1ccnc2cc(C(F)(F)F)ccc12 | 181 to 182
94 | O=[N+]([O-])c1ccc(NN=C2c3ncc(Cl)cc3C=CC2Cl)c([N+](=O)[O-])c1 (configuration not stated) | > 280
95 | COc1ccc(CCNS(=O)(=O)Cc2ccc3[nH]cc(CCN(C)C)c3c2)cc1 | 67 to 70
96 | Cc1sc(-c2ccccc2)nc1CN(C)[C@H]1CC[C@H](c2ccc3[nH]c(=O)oc3c2)CC1 | 246 to 248
97 | Clc1ccc2nc(N3CCCCC3)nc(N3CCCCC3)c2c1 | 115 to 118
